Source: patent US5358951A, “Angiotensin II receptor blocking 2, 3, 6 substituted quinazolinones” (American Cyanamid Company, priority 1993, dated 1994)

System: vasopressor response of angiotensin II
Experiment: AII Challenge: antagonism of angiotensin II vasopressor response
Type: in vivo
Details: for inhibition in vivo at 1 mg/kg / inhibition in vivo at 3 mg/kg: Rattus norvegicus; for inhibition in vivo at 1 mg/kg: iv; for inhibition in vivo at 3 mg/kg: po
How it was run: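 Percent antagonism is based on the systolic blood pressure rise (mmHg) to i.v. angiotensin II at 0.05 and 0.1 ug/kg. Each rat's own predose response was taken as 100%. Challenges were repeated from 30 to 300 min after i.v., i.p. or oral compound in cannulated conscious male SHR, 16-20 weeks old.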

[1] = 1 mg/kg i.v., AII 0.05 mcg/kg IV, 30 min post dose
[2] = 1 mg/kg i.v., AII 0.05 mcg/kg IV, 60 min post dose
[3] = 1 mg/kg i.v., AII 0.05 mcg/kg IV, 90 min post dose
[4] = 1 mg/kg i.v., AII 0.05 mcg/kg IV, 120 min post dose
[5] = 1 mg/kg i.v., AII 0.05 mcg/kg IV, 180 min post dose
[6] = 1 mg/kg i.v., AII 0.05 mcg/kg IV, 240 min post dose
[7] = 1 mg/kg i.v., AII 0.05 mcg/kg IV, 300 min post dose
[8] = 1 mg/kg i.v., AII 0.1 mcg/kg IV, 30 min post dose
[9] = 1 mg/kg i.v., AII 0.1 mcg/kg IV, 60 min post dose
[10] = 1 mg/kg i.v., AII 0.1 mcg/kg IV, 90 min post dose
[11] = 1 mg/kg i.v., AII 0.1 mcg/kg IV, 120 min post dose
[12] = 1 mg/kg i.v., AII 0.1 mcg/kg IV, 180 min post dose
[13] = 1 mg/kg i.v., AII 0.1 mcg/kg IV, 240 min post dose
[14] = 1 mg/kg i.v., AII 0.1 mcg/kg IV, 300 min post dose
[15] = 0.5 h, 1 mg/kg i.v., AII 0.05 mcg/kg IV, 30 min post dose
[16] = 0.5 h, 1 mg/kg i.v., AII 0.1 mcg/kg IV, 30 min post dose
[17] = 1 h, 1 mg/kg i.v., AII 0.05 mcg/kg IV, 60 min post dose
[18] = 1 h, 1 mg/kg i.v., AII 0.1 mcg/kg IV, 60 min post dose
[19] = 2 h, 1 mg/kg i.v., AII 0.05 mcg/kg IV, 120 min post dose
[20] = 2 h, 1 mg/kg i.v., AII 0.1 mcg/kg IV, 120 min post dose
[21] = 3 h, 1 mg/kg i.v., AII 0.05 mcg/kg IV, 180 min post dose
[22] = 3 h, 1 mg/kg i.v., AII 0.1 mcg/kg IV, 180 min post dose
[23] = 4 h, 1 mg/kg i.v., AII 0.05 mcg/kg IV, 240 min post dose
[24] = 4 h, 1 mg/kg i.v., AII 0.1 mcg/kg IV, 240 min post dose
[25] = 5 h, 1 mg/kg i.v., AII 0.05 mcg/kg IV, 300 min post dose
[26] = 5 h, 1 mg/kg i.v., AII 0.1 mcg/kg IV, 300 min post dose
[27] = […], 1 mg/kg i.v., AII 0.05 mcg/kg IV, 90 min post dose
[28] = […], 1 mg/kg i.v., AII 0.1 mcg/kg IV, 90 min post dose

CCCCc1nc2ccc([C@@]3(CC)C[C@@H]4CCCN4O3)cc2c(=O)n1Cc1ccc(-c2ccccc2-c2nnn[nH]2)cc1 (relative stereo) [Example 71, Cis-2-butyl-6-(2-ethylhexahydropyrrolo[1,2b]isoxazol-2-yl)-3-[[2'-[1-(1H-tetrazol-5-yl)][1,1'-biphenyl]-4-yl]methyl]-4(3H)-quinazolinone]
Response Average Change [1]: 20 mmHg
Response Average Change [2]: 5 mmHg
Response Average Change [3]: 30 mmHg
Response Average Change [4]: 15 mmHg
Response Average Change [5]: 15 mmHg
Response Average Change [6]: 15 mmHg
Response Average Change [7]: 20 mmHg
Response Average Change [8]: 15 mmHg
Response Average Change [9]: 15 mmHg
Response Average Change [10]: 20 mmHg
Response Average Change [11]: 10 mmHg
Response Average Change [12]: 15 mmHg
Response Average Change [13]: 22.5 mmHg
Response Average Change [14]: 23.5 mmHg
inhibition in vivo at 1 mg/kg [15]: 53%
inhibition in vivo at 1 mg/kg [16]: 60%
inhibition in vivo at 1 mg/kg [17]: 88%
inhibition in vivo at 1 mg/kg [18]: 60%
inhibition in vivo at 1 mg/kg [19]: 65%
inhibition in vivo at 1 mg/kg [20]: 73%
inhibition in vivo at 1 mg/kg [21]: 65%
inhibition in vivo at 1 mg/kg [22]: 60%
inhibition in vivo at 1 mg/kg [23]: 65%
inhibition in vivo at 1 mg/kg [24]: 40%
inhibition in vivo at 1 mg/kg [25]: 53%
inhibition in vivo at 1 mg/kg [26]: 37%
inhibition in vivo at 1 mg/kg [27]: 29%
inhibition in vivo at 1 mg/kg [28]: 47%

CCCCc1nc2ccc(C3(C(=O)OC)CC4CCCN4O3)cc2c(=O)n1Cc1ccc(-c2ccccc2-c2nnn[nH]2)cc1 (mixture of isomers) [Example 78, Trans(+/-)-Methyl-2-[2-butyl-3,4-dihydro-4-oxo-3-[[2'-(1H-tetrazol-5-yl)[1,1'-biphenyl]-4-yl]methyl-6-quinazolinyl]hexahydropyrrolo[1,2-b]isoxazole-2-carboxylate]
Response Average Change [1]: 5 mmHg
Response Average Change [2]: 12.5 mmHg
Response Average Change [3]: 7.5 mmHg
Response Average Change [4]: 10 mmHg
Response Average Change [5]: 11 mmHg
Response Average Change [6]: 12.5 mmHg
Response Average Change [7]: 5 mmHg
Response Average Change [8]: 15 mmHg
Response Average Change [9]: 12.5 mmHg
Response Average Change [10]: 15 mmHg
Response Average Change [11]: 17.5 mmHg
Response Average Change [12]: 12.5 mmHg
Response Average Change [13]: 12.5 mmHg
Response Average Change [14]: 17.5 mmHg
Response Average Change (3 mg/kg P.O., AII 0.05 mcg/kg IV, 30 min post dose): 27.5 mmHg
Response Average Change (3 mg/kg P.O., AII 0.05 mcg/kg IV, 60 min post dose): 22.5 mmHg
Response Average Change (3 mg/kg P.O., AII 0.05 mcg/kg IV, 90 min post dose): 22.5 mmHg
Response Average Change (3 mg/kg P.O., AII 0.05 mcg/kg IV, 120 min post dose): 17.5 mmHg
Response Average Change (3 mg/kg P.O., AII 0.05 mcg/kg IV, 180 min post dose): 19 mmHg
Response Average Change (3 mg/kg P.O., AII 0.05 mcg/kg IV, 240 min post dose): 19 mmHg
Response Average Change (3 mg/kg P.O., AII 0.05 mcg/kg IV, 300 min post dose): 27.5 mmHg
Response Average Change (3 mg/kg P.O., AII 0.1 mcg/kg IV, 30 min post dose): 35 mmHg
Response Average Change (3 mg/kg P.O., AII 0.1 mcg/kg IV, 60 min post dose): 25 mmHg
Response Average Change (3 mg/kg P.O., AII 0.1 mcg/kg IV, 90 min post dose): 17.5 mmHg
Response Average Change (3 mg/kg P.O., AII 0.1 mcg/kg IV, 120 min post dose): 15 mmHg
Response Average Change (3 mg/kg P.O., AII 0.1 mcg/kg IV, 180 min post dose): 17.5 mmHg
Response Average Change (3 mg/kg P.O., AII 0.1 mcg/kg IV, 240 min post dose): 17.5 mmHg
Response Average Change (3 mg/kg P.O., AII 0.1 mcg/kg IV, 300 min post dose): 25 mmHg
inhibition in vivo at 1 mg/kg [15]: 80%
inhibition in vivo at 1 mg/kg [16]: 45%
inhibition in vivo at 1 mg/kg [17]: 50%
inhibition in vivo at 1 mg/kg [18]: 55%
inhibition in vivo at 1 mg/kg [19]: 60%
inhibition in vivo at 1 mg/kg [20]: 36%
inhibition in vivo at 1 mg/kg [21]: 56%
inhibition in vivo at 1 mg/kg [22]: 55%
inhibition in vivo at 1 mg/kg [23]: 50%
inhibition in vivo at 1 mg/kg [24]: 55%
inhibition in vivo at 1 mg/kg [25]: 80%
inhibition in vivo at 1 mg/kg [26]: 36%
inhibition in vivo at 1 mg/kg [27]: 70%
inhibition in vivo at 1 mg/kg [28]: 45%
inhibition in vivo at 3 mg/kg (0.5 h, 3 mg/kg P.O., AII 0.05 mcg/kg IV, 30 min post dose): 0%
inhibition in vivo at 3 mg/kg (0.5 h, 3 mg/kg P.O., AII 0.1 mcg/kg IV, 30 min post dose): -17%
inhibition in vivo at 3 mg/kg (1 h, 3 mg/kg P.O., AII 0.05 mcg/kg IV, 60 min post dose): 18%
inhibition in vivo at 3 mg/kg (1 h, 3 mg/kg P.O., AII 0.1 mcg/kg IV, 60 min post dose): 17%
inhibition in vivo at 3 mg/kg (2 h, 3 mg/kg P.O., AII 0.05 mcg/kg IV, 120 min post dose): 36%
inhibition in vivo at 3 mg/kg (2 h, 3 mg/kg P.O., AII 0.1 mcg/kg IV, 120 min post dose): 50%
inhibition in vivo at 3 mg/kg (3 h, 3 mg/kg P.O., AII 0.05 mcg/kg IV, 180 min post dose): 31%
inhibition in vivo at 3 mg/kg (3 h, 3 mg/kg P.O., AII 0.1 mcg/kg IV, 180 min post dose): 42%
inhibition in vivo at 3 mg/kg (4 h, 3 mg/kg P.O., AII 0.05 mcg/kg IV, 240 min post dose): 31%
inhibition in vivo at 3 mg/kg (4 h, 3 mg/kg P.O., AII 0.1 mcg/kg IV, 240 min post dose): 42%
inhibition in vivo at 3 mg/kg (5 h, 3 mg/kg P.O., AII 0.05 mcg/kg IV, 300 min post dose): 0%
inhibition in vivo at 3 mg/kg (5 h, 3 mg/kg P.O., AII 0.1 mcg/kg IV, 300 min post dose): 17%
inhibition in vivo at 3 mg/kg ([…], 3 mg/kg P.O., AII 0.05 mcg/kg IV, 90 min post dose): 18%
inhibition in vivo at 3 mg/kg ([…], 3 mg/kg P.O., AII 0.1 mcg/kg IV, 90 min post dose): 42%
